# Experimental data published in patent US9421163B2, “Topical compositions comprising polyunsaturated fatty acids” (Dignity Sciences Limited, priority 2009, dated 2016).
# Experiments:
# COX-2 enzymes = assay: Immunohistochemistry assay of COX-2 enzymes in ex vivo porcine ear skin (Franz diffusion cell, diaminobenzidine staining); assay type: cell-based; conditions: substance as donor phase in Franz cell, after six hours versus 0 hours
# COX-2 = assay: Western Blotting of COX-2 expression in porcine skin after topical application; assay type: cell-based; conditions: topically applied, water control assigned 100%, FIG. 5
# Experimental: A Western Blotting experiment was carried out to determine the effect of topically applied representative compounds of the invention DGLA and 15-HETrE on the expression of COX-2 in porcine skin. Water was used as a control.
# The porcine skin membranes (as described in Example 1) were gently cleaned with de-ionised water before being homogenized (Silverson, Chesham, UK) in a RIPA lysis buffer [50 mM Tris-HCl (PH 7.4), 150 mM NaCl, 1 mM PMSF, 1 mM EDTA, 5 μg mL^−1 aprotinin, 5 μg mL^−1 leupeptin, 1% Triton X-100, 1% sodium deoxycholate, 0.1% SDS]. After 15 min incubation on ice, the lysates were clarified by centrifugation at 14000×g for 2×15 min and the supernatant stored at −80° C. for subsequent protein analysis.
# Aliquots of 30 μg total protein were separated by SDS-PAGE, transferred to nitrocelullose membranes using the Trans-Blot electrophoretic Transfer Cell and briefly stained with Ponceau S to verify effective transfer. Immunoblots were incubated for 1 h in a blocking solution [tris-buffered saline (TBS)-Tween 20 containing 5% (w/v) commercial skimmed milk powder (Marvel) at room temperature. After washing, the membrane was probed overnight at 4° C. with COX-2 antibody at 1:1000, 5-LOX at 1:1000 and iNOS at 1:500 in (1:20 and 1:100 western blocking reagent and sodium azide solution respectively made up to volume with TBS tween). […]
# skin = conditions: applied directly to the skin; Xi et al. 2000; cited from earlier work
SMILES,"amount of dark stain (diaminobenzidine, COX-2 enzymes present in the skin) (COX-2 enzymes)",COX-2 expression relative to the control (COX-2),antiproliferative properties (skin)
"CC(C(=O)O)c1cccc(C(=O)c2ccccc2)c1 (stereo not drawn) [ketoprofen, reference compound]",the amount of dark stain has reduced,–,–
"CCCCC/C=C\C/C=C\C/C=C\CCCCCCC(=O)O [DGLA, Eicosa-8Z, 11Z, 14Z-trienoic acid]",the amount of dark stain has reduced,significant reduction,–
"CCCCCC(O)/C=C/C=C\C/C=C\CCCCCCC(=O)O (stereo not drawn) [15-HETrE, 15-Hydroxy-eicosa-8Z, 11Z, 13E-trienoic acid]",the amount of dark stain has reduced,significant reduction,antiproliferative properties
